Test results as given in patent US20260097037A1, “FUSED RING COMPOUND HAVING GLP-1 RECEPTOR AGONIST EFFECT” (Shionogi & Co., Ltd., priority 2022, published 2026).
Read-outs that look alike come from different tables or passages of the source.

Biological target: T1, Human GLP-1 receptor stably expressing cells (hGLP-1R/CHO-K1 cells) (Homo sapiens, UniProt P43220)
T1 construct: expressed in transfected cells
Test: Measurement of GLP-1 receptor agonist activity (cAMP assay)
Assay type: cell-based
Conditions: for Emax: cAMP with 2 nM human GLP-1 (7-36) = 100%, DMSO only = 0%; for EC50: increase in cAMP concentration in hGLP-1R/CHO-K1 cells, 37° C. 1 hour
Method: Test Example 1: Measurement of GLP-1 Receptor Agonist Activity
Human GLP-1 receptor stably expressing cells (hGLP-1R/CHO-K1 cells) are cultured in an a-MEM medium (Sigma) containing 10% FBS (Hyclone), 2% GlutaMAX (Gibco), 1% G418 (Nacalai Tesque), and 1% Penicillin-Streptomycin Mixed Solution (Sigma) at 37° C. under 5% CO2 conditions, and recovered by treating a 10 fold diluted 5.0 g/1-trypsin/5.3 mmol/1-EDTA solution (Nacalai Tesque) and cryopreserved.
A DMSO solution containing the compound of the present invention or human GLP-1 (7-36) (Phoenix Pharmaceuticals) is dispensed into a 384-well microplate (Greiner) at 62.5 nL/well, and in addition, 400 μM Forskolin (Nacalai Tesque) is dispensed therein at 7.5 nL/well. Subsequently, the frozen GLP-1 R/CHO-K1 cells are thawed in a thermostatic bath at 37° C., suspended in HBSS buffer (GIBCO) containing 0.1% BSA (Sigma), 20 mM HEPES, 0.1 mM IBMX (Sigma), and 0.2 mM RO20-1724 (Calbiochem) at 2×10^4 cells/mL, and the cell suspension is added at 6 μL/well. The solution was incubated at 37° C. for 1 hour and intracellular cAMP concentration is measured using cAMP Gs dynamic kit (Cisbio) according to the protocol attached to the product. Specifically, a cAMP-d2/Anti-cAMP-Cryptate (1/1) mixture solution is added in a total amount of 6 μL/well, and is incubated at room temperature for 1 hour, and then, time-resolved fluorescence is measured using PHERAstar (BMG Labtech).
Assuming that the cAMP concentration when human GLP-1 (7-36) is dispensed to a final concentration of 2 nM is 100% and the cAMP concentration when only DMSO is dispensed is 0%, the 50% effective concentration (EC50) and the maximum effect (Emax) of the compound of the present invention are calculated using an increase in the cAMP concentration as an index, using TIBCO Spotfire (TIBCO Software). The dilution concentration or the dilution solvent are changed as necessary.
The compounds of the present invention were tested essentially as described above.

[1] = CHO-K1, maximum effect, read-out: Emax

T1 sequence (P43220 24-463): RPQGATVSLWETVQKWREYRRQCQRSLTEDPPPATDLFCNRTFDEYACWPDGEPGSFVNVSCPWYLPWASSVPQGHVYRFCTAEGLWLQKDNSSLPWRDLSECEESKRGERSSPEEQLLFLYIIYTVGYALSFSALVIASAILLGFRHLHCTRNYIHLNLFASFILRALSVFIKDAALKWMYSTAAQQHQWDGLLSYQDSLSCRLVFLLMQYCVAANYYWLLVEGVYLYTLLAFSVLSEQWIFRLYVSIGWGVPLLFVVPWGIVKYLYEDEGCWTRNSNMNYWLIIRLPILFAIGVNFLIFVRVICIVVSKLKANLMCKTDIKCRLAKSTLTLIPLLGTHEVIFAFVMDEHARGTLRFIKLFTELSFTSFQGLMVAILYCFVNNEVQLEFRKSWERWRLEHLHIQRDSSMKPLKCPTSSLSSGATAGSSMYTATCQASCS

Row | SMILES | Emax [1] [%] | EC50 [nM] | Emax (maximum effect) [%]
1 | C[C@H]1c2nc(OCc3ccccc3Cl)c(C(F)F)cc2CCN1Cc1nc2ccc(C(=O)O)nc2n1C[C@@H]1CCO1 [Compound I-099] | 106 | 2.55 | 
2 | Cc1ccc(COc2nc3c(cc2Cl)CCN(Cc2nc4ccc(C(=O)O)cc4n2C[C@@H]2CCO2)[C@H]3C)cc1 [Compound I-028] |  | 0.748 | 110
3 | C[C@H]1c2nc(OCc3c(F)cc(Cl)cc3F)c(Cl)cc2CCN1Cc1nc2ccc(C(=O)O)nc2n1C[C@@H]1CCO1 [Compound I-033] | 111 | 0.437 | 
4 | C[C@H]1c2nc(NCc3c(F)cc(Cl)cc3F)c(C(F)(F)F)cc2CCN1Cc1nc2c(F)cc(C(=O)O)cc2n1C[C@@H]1CCO1 [Compound I-173] | 99.7 | 0.0889 | 
5 | C[C@H]1c2nc(OCc3ccc(Cl)cc3F)c(C(F)(F)F)cc2CCN1Cc1nc2sc(C(=O)O)cc2n1C[C@@H]1CCO1 [Compound I-049] | 112 | 0.307 | 
6 | C[C@H]1c2cc(OCc3ccc(Cl)cc3Cl)c(C(F)F)cc2CCN1Cc1nc2ccc(C(=O)O)cc2n1C[C@@H]1CCO1 [Compound I-009] | 122 | 0.969 | 
7 | C[C@H]1c2nc(OCc3ccc(C#N)cc3F)c(Cl)cc2CCN1Cc1nc2ccc(C(=O)O)cc2n1C[C@@H]1CCO1 [Compound I-022] | 112 | 0.125 | 
8 | O=C(O)c1ccc2nc(CC3CCc4cc(C(F)(F)F)c(OCc5ccc(Cl)cc5F)cc4C3)n(C[C@@H]3CCO3)c2c1 (some centres unmarked) [Compound I-077] | 92.3 | 7.35 | 
9 | C[C@H]1c2nc(OCc3ccc(F)cc3F)c(Cl)cc2CCN1Cc1nc2c(F)cc(C(=O)O)cc2n1C[C@@H]1CCO1 [Compound I-083] | 116 | 0.122 | 
10 | C[C@H]1c2nc(OCc3ccc(C#N)c4occc34)c(C(F)(F)F)cc2CCN1Cc1nc2ccc(C(=O)O)cc2n1C[C@@H]1CCO1 [Compound I-165] | 111 | 0.965 | 
11 | O=C(O)c1ccc2nc(Cc3ccc4nc(C(F)(F)F)c(OCc5ccc(Cl)cc5F)nc4c3F)n(C[C@@H]3CCO3)c2c1F [Compound I-001] | 100 | 0.538 | 
12 | C[C@H]1c2cc(OCc3ccc(Cl)cn3)c(C(F)F)cc2CCN1Cc1nc2ccc(C(=O)O)cc2n1C[C@@H]1CCO1 [Compound I-003] | 102 | 3.6 | 
13 | C[C@H]1c2nc(OCc3ccc(F)cc3)c(Cl)cc2CCN1Cc1nc2ccc(C(=O)O)cc2n1C[C@@H]1CCO1 [Compound I-023] | 130 | 0.443 | 
14 | C[C@H]1c2c(cc(C(F)(F)F)c3c2O[C@](C)(c2ccc(Cl)cn2)O3)CCN1Cc1nc2ccc(C(=O)O)cc2n1C[C@@H]1CCO1 [Compound I-026] | 53.3 | 4210 | 
15 | C[C@H]1c2nc(NCc3ccc(Cl)cn3)c(C(F)(F)F)cc2CCN1Cc1nc2c(F)cc(C(=O)O)cc2n1C[C@@H]1CCO1 [Compound I-196] | 108 | 0.611 | 
16 | C[C@H]1c2nc(OCc3ccc(F)cc3F)c(Cl)cc2CCN1Cc1nc2ccc(C(=O)O)nc2n1C[C@@H]1CCO1 [Compound I-029] | 105 | 0.592 | 
17 | C[C@H]1c2nc(OCc3ccc(Cl)cc3F)c(C(F)(F)F)cc2CCN1Cc1nc2c(-c3ccn(C)n3)cc(C(=O)O)cc2n1C[C@@H]1CCO1 [Compound I-064] | 102 | 0.345 | 
18 | C[C@H]1c2nc(OCc3cc(Cl)n(C)n3)c(C(F)(F)F)cc2CCN1Cc1nc2ccc(C(=O)O)cc2n1C[C@@H]1CCO1 [Compound I-154] | 101 | 7.04 | 
19 | Cc1ccc(COc2nc3c(cc2C(F)F)CCN(Cc2nc4ccc(C(=O)O)c(F)c4n2C[C@@H]2CCO2)[C@H]3C)cc1 [Compound I-119] | 120 | 0.148 | 
20 | C[C@H]1c2nc(OCc3ccc(OC(F)F)cc3F)c(C#N)cc2CCN1Cc1nc2c(Cl)cc(C(=O)O)cc2n1C[C@@H]1CCO1 [Compound I-186] | 123 | 0.466 | 
21 | C[C@H]1c2nc(NCc3ccc(Cl)cc3)c(C(F)(F)F)cc2CCN1Cc1nc2c(F)cc(C(=O)O)cc2n1C[C@@H]1CCO1 [Compound I-169] | 109 | 0.191 | 
22 | C[C@H]1c2nc(OCc3c(F)cc(F)cc3F)c(C(F)F)cc2CCN1Cc1nc2ccc(C(=O)O)cc2n1C[C@@H]1CCO1 [Compound I-061] | 101 | 0.295 | 
23 | C[C@H]1c2c(cc(C(F)(F)F)c3c2O[C@@](C)(c2ccc(Cl)cn2)O3)CCN1Cc1nc2ccc(C(=O)O)cc2n1C[C@@H]1CCO1 [Compound I-027] | 119 | 0.701 | 
24 | C[C@H]1c2c(ccc3c2OC(C)(c2ccc(Cl)cc2F)O3)CCN1Cc1nc2ccc(C(=O)O)cc2n1C[C@@H]1CCO1 (some centres unmarked) [Compound I-091] | 91.7 | 2.64 | 
25 | C[C@H]1c2nc(NCc3ccc(Cl)cn3)c(C(F)(F)F)cc2CCN1Cc1nc2c(Cl)cc(C(=O)O)cc2n1C[C@@H]1CCO1 [Compound I-197] | 111 | 0.345 | 
26 | C[C@H]1c2cc(OCc3ccc(F)cc3)c(C(F)F)cc2CCN1Cc1nc2ccc(C(=O)O)cc2n1C[C@@H]1CCO1 [Compound I-011] | 102 | 16.1 | 
27 | O=C(O)c1ccc2nc(C3CC34CCc3cc(C(F)(F)F)c(OCc5ccc(Cl)cc5F)cc3C4)n(C[C@@H]3CCO3)c2c1 (some centres unmarked) [Compound I-104] | 75.3 | 514 | 
28 | Cc1ccc(COc2nc3c(cc2Cl)CCN(Cc2nc4ccc(C(=O)O)c(F)c4n2C[C@@H]2CCO2)[C@H]3C)cc1 [Compound I-035] | 124 | 0.158 | 

The next compounds have a lower EC50 than those just listed; values first:

Row | Emax [1] [%] | EC50 [nM] | Emax (maximum effect) [%] | SMILES
29 | 123 | 0.0856 |  | C[C@H]1c2nc(OCc3c(F)cc(F)cc3F)c(C(F)F)cc2CCN1Cc1nc2ccc(C(=O)O)c(F)c2n1C[C@@H]1CCO1 [Compound I-125]
30 | 107 | 0.0831 |  | C[C@H]1c2nc(NCc3cc(F)c(Cl)cc3F)c(C(F)(F)F)cc2CCN1Cc1nc2c(F)cc(C(=O)O)cc2n1C[C@@H]1CCO1 [Compound I-175]
31 | 92.7 | 0.0738 |  | C[C@H]1c2nc(NCc3ccc(Cl)cc3F)c(C(F)(F)F)cc2CCN1Cc1nc2c(Cl)cc(C(=O)O)cc2n1C[C@@H]1CCO1 [Compound I-151]
32 | 113 | 0.0706 |  | C[C@H]1c2nc(OCc3ccc(F)cc3F)c(C(F)F)cc2CCN1Cc1nc2c(F)cc(C(=O)O)cc2n1C[C@@H]1CCO1 [Compound I-110]
33 | 112 | 0.0693 |  | C[C@H]1c2nc(NCc3cc(F)c(Cl)cc3F)c(C(F)(F)F)cc2CCN1Cc1nc2c(Cl)cc(C(=O)O)cc2n1C[C@@H]1CCO1 [Compound I-176]
34 | 101 | 0.0685 |  | C[C@H]1c2nc(OCc3ccc(C#N)cc3F)c(Cl)cc2CCN1Cc1nc2c(F)cc(C(=O)O)cc2n1C[C@@H]1CCO1 [Compound I-086]
35 | 129 | 0.0679 |  | C[C@H]1c2nc(OCc3cc(F)c(Cl)cc3F)c(Cl)cc2CCN1Cc1nc2ccc(C(=O)O)c(F)c2n1C[C@@H]1CCO1 [Compound I-040]
36 | 126 | 0.0595 |  | C[C@H]1c2nc(OCc3ccc(Cl)cc3Cl)c(Cl)cc2CCN1Cc1nc2ccc(C(=O)O)c(F)c2n1C[C@@H]1CCO1 [Compound I-038]
37 | 123 | 0.0514 |  | COc1cc(C(=O)O)cc2c1nc(CN1CCc3cc(C(F)(F)F)c(NCc4ccc(C#N)cc4F)nc3[C@@H]1C)n2C[C@@H]1CCO1 [Compound I-195]
38 | 131 | 0.0345 |  | C[C@H]1c2nc(OCc3ccc(Cl)cc3F)c(Cl)cc2CCN1Cc1nc2ccc(C(=O)O)c(F)c2n1C[C@@H]1CCO1 [Compound I-045]
39 | 106 | 0.0274 |  | COc1cc(C(=O)O)cc2c1nc(CN1CCc3cc(Cl)c(OCc4cc(F)c(Cl)cc4F)nc3[C@@H]1C)n2C[C@@H]1CCO1 [Compound I-072]
40 | 105 | 0.0187 |  | COc1cc(C(=O)O)cc2c1nc(CN1CCc3cc(Cl)c(OCc4ccc(Cl)cc4Cl)nc3[C@@H]1C)n2C[C@@H]1CCO1 [Compound I-070]
41 | 134 | 0.0165 |  | COc1cc(C(=O)O)cc2c1nc(CN1CCc3cc(C(F)F)c(OCc4ccc(C#N)cc4F)nc3[C@@H]1C)n2C[C@@H]1CCO1 [Compound I-135]
42 | 127 | 0.0162 |  | COc1cc(C(=O)O)cc2c1nc(CN1CCc3cc(C(F)F)c(OCc4ccc(Cl)cc4Cl)nc3[C@@H]1C)n2C[C@@H]1CCO1 [Compound I-132]
43 | 128 | 0.0122 |  | COc1cc(C(=O)O)cc2c1nc(CN1CCc3cc(C(F)F)c(OCc4ccc(Cl)cc4F)nc3[C@@H]1C)n2C[C@@H]1CCO1 [Compound I-128]
